Source: the NIST ThermoML archive (doi:10.1021/je0301038)

Test: xn = mol fraction of the nth substance listed
Conditions: Liquid, Pycnometric method, x1 = 0.4998

FC(Cl)(Cl)Cl [trichlorofluoromethane] + FC(F)(Cl)Cl
Conditions	mass density [kg/m3]
229.99 K, 36407 kPa	1642.58
230 K, 1073 kPa	1584.87
230 K, 2061 kPa	1587.07
230 K, 3560 kPa	1589.87
230.01 K, 1362 kPa	1585.49
230.01 K, 1769 kPa	1586.39
230.01 K, 2415 kPa	1587.69
230.01 K, 2764 kPa	1588.35
230.01 K, 3080 kPa	1589
230.01 K, 10736 kPa	1602.83
230.01 K, 22197 kPa	1621.64
230.01 K, 50366 kPa	1660.98
230.01 K, 63788 kPa	1677.26
270 K, 755 kPa	1479.99
270 K, 1039 kPa	1480.78
270 K, 1716 kPa	1482.68
270 K, 2040 kPa	1483.59
270 K, 2400 kPa	1484.58
270 K, 2768 kPa	1485.54
270 K, 3627 kPa	1487.88
270 K, 15483 kPa	1517.06
270 K, 25381 kPa	1538
270 K, 35970 kPa	1557.73
270 K, 45944 kPa	1574.79
270 K, 56182 kPa	1590.7
270 K, 63322 kPa	1601.09
270.01 K, 1412 kPa	1481.79
270.01 K, 3077 kPa	1486.41
270.01 K, 8526 kPa	1500.56
298.14 K, 686 kPa	1402.27
298.14 K, 1019 kPa	1403.48
298.14 K, 2067 kPa	1407.39
298.14 K, 2429 kPa	1408.71
298.14 K, 2749 kPa	1409.89
298.14 K, 6905 kPa	1424.28
298.14 K, 14368 kPa	1447.12
298.14 K, 20993 kPa	1465.01
298.14 K, 42543 kPa	1512.9
298.14 K, 50266 kPa	1527.35
298.14 K, 57226 kPa	1539.49
298.14 K, 63755 kPa	1550.31
298.14 K, 69807 kPa	1559.74
298.15 K, 1398 kPa	1404.87
298.15 K, 1714 kPa	1406.06
298.15 K, 3086 kPa	1411.1
298.15 K, 3454 kPa	1412.44
298.15 K, 28151 kPa	1482.31
298.15 K, 36116 kPa	1499.98
319.99 K, 1077 kPa	1338.31
319.99 K, 1422 kPa	1340.05
319.99 K, 1769 kPa	1341.72
319.99 K, 2102 kPa	1343.35
319.99 K, 2468 kPa	1345.14
319.99 K, 2807 kPa	1346.81
319.99 K, 3154 kPa	1348.46
319.99 K, 3382 kPa	1349.54
319.99 K, 7540 kPa	1367.61
319.99 K, 14192 kPa	1392.66
319.99 K, 20555 kPa	1413.23
319.99 K, 27780 kPa	1434.19
319.99 K, 36829 kPa	1456.94
319.99 K, 43292 kPa	1471.79
319.99 K, 49802 kPa	1485.45
319.99 K, 56704 kPa	1498.94
319.99 K, 62748 kPa	1510.07
319.99 K, 69080 kPa	1521.1
349.98 K, 1415 kPa	1240.4
349.98 K, 2137 kPa	1246.23
349.98 K, 2476 kPa	1248.87
349.98 K, 2793 kPa	1251.27
349.98 K, 3057 kPa	1253.22
349.98 K, 3564 kPa	1256.93
349.98 K, 7128 kPa	1280.11
349.98 K, 14242 kPa	1317.8
349.98 K, 21180 kPa	1347.2
349.98 K, 27731 kPa	1370.9
349.98 K, 35848 kPa	1396.4
349.98 K, 42725 kPa	1415.5
349.98 K, 49699 kPa	1433.1
349.98 K, 63152 kPa	1463.4
349.98 K, 67876 kPa	1472.9
349.99 K, 1706 kPa	1242.74
349.99 K, 56839 kPa	1449.7
374.97 K, 2088 kPa	1141.8
374.97 K, 2486 kPa	1147.25
374.97 K, 3125 kPa	1156.09
374.97 K, 3513 kPa	1160.16
374.97 K, 7191 kPa	1197.39
374.97 K, 13814 kPa	1245.37
374.97 K, 21029 kPa	1284.3
374.97 K, 35276 kPa	1341.17
374.98 K, 2825 kPa	1151.69
374.98 K, 27477 kPa	1312.44
374.98 K, 42480 kPa	1364.11
374.98 K, 49122 kPa	1383.05
374.98 K, 55869 kPa	1400.52
374.98 K, 61365 kPa	1413.75
374.98 K, 69602 kPa	1432.06
399.96 K, 3164 kPa	1019.46
399.96 K, 4220 kPa	1047.59
399.96 K, 21341 kPa	1223.13
399.97 K, 3545 kPa	1030.57
399.97 K, 4902 kPa	1062.22
399.97 K, 5593 kPa	1075.12
399.97 K, 6171 kPa	1085.57
399.97 K, 7297 kPa	1101.78
399.97 K, 14445 kPa	1176.05
399.97 K, 27495 kPa	1255.89
399.97 K, 42176 kPa	1315.43
399.97 K, 49196 kPa	1338.37
399.97 K, 56478 kPa	1359.31
399.98 K, 35409 kPa	1290.45
399.98 K, 62903 kPa	1376.29
399.98 K, 68677 kPa	1390.42
424.96 K, 4905 kPa	873.33
424.96 K, 5555 kPa	914.74
424.96 K, 6222 kPa	944.04
424.96 K, 7091 kPa	972.83
424.96 K, 13955 kPa	1091.53
424.96 K, 27401 kPa	1198.64
424.97 K, 21076 kPa	1156.9
424.97 K, 35181 kPa	1238.98
424.97 K, 41997 kPa	1268.18
424.97 K, 49019 kPa	1294.18
424.97 K, 56094 kPa	1317.32
424.97 K, 62391 kPa	1335.91
424.97 K, 68657 kPa	1352.82
